Experimental data as given in patent publication US6521630B1, “Tetrahydroquinazoline-2,4-diones and therapeutic uses thereof” (Pfizer Inc., priority 1999, dated 2003).
Counter-ions that a name gives are not always drawn.

Row | SMILES | melting point [°C]
1 | O=c1[nH]c2c(Cl)cc(Cl)cc2c(=O)n1CCCN1CC=C(c2ccc(Cl)cc2)CC1 (as salt: maleate) | 197 to 199
2 | O=c1[nH]c2ccc(Cl)cc2c(=O)n1CCCN1CC=C(c2ccc(Cl)cc2)CC1 (as salt: maleate) | 197 to 198
3 | O=c1[nH]c2cc(F)ccc2c(=O)n1CCCN1CC=C(c2ccc(Cl)cc2)CC1 (as salt: maleate) | 197 to 198
4 | O=c1[nH]c2cc(Cl)ccc2c(=O)n1CCCN1CC=C(c2ccc(Cl)cc2)CC1 (as salt: maleate) | 225 to 227
5 | Cc1c(Cl)ccc2c(=O)n(CCCN3CC=C(c4ccc(Cl)cc4)CC3)c(=O)[nH]c12 (as salt: maleate) | 208 to 210
6 | O=c1[nH]c2ccc([N+](=O)[O-])cc2c(=O)n1CCCN1CC=C(c2ccc(Cl)cc2)CC1 (as salt: maleate) | 205 to 207
7 | Cc1ccc(C)c2c(=O)n(CCCN3CC=C(c4ccc(Cl)cc4)CC3)c(=O)[nH]c12 (as salt: maleate) | 212 to 220
8 | Cc1cc(Br)c2[nH]c(=O)n(CCCN3CC=C(c4ccc(Cl)cc4)CC3)c(=O)c2c1 (as salt: maleate) | 212 to 214
9 | O=c1[nH]c2cc([N+](=O)[O-])ccc2c(=O)n1CCCN1CC=C(c2ccc(Cl)cc2)CC1 (as salt: maleate) | 210 to 212
10 | O=c1[nH]c2c(O)cccc2c(=O)n1CCCN1CC=C(c2ccc(Cl)cc2)CC1 (as salt: hydrobromid) | 284 to 286

Other lines, results leading:

Row | melting point [°C] | SMILES
11 | 199 to 201 | Cc1ccc2c(=O)n(CCCN3CC=C(c4ccc(Cl)cc4)CC3)c(=O)[nH]c2c1 (as salt: maleate)
12 | 158 to 160 | Cc1cccc2[nH]c(=O)n(CCCN3CC=C(c4cccc(C(F)(F)F)c4)CC3)c(=O)c12 (as salt: maleate)
13 | 190 to 194 | O=c1[nH]c2cccc(Cl)c2c(=O)n1CCCN1CC=C(c2ccc(Cl)cc2)CC1 (as salt: maleate)
14 | 205 to 210 | O=c1[nH]c2c(Cl)cccc2c(=O)n1CCCN1CC=C(c2cccc(C(F)(F)F)c2)CC1 (as salt: maleate)
15 | 165 to 170 | Cc1ccc(C2=CCN(CCCn3c(=O)[nH]c4cccc(C)c4c3=O)CC2)cc1 (as salt: maleate)
16 | 175 to 178 | Cc1cccc2[nH]c(=O)n(CCCN3CC=C(c4ccc(Cl)cc4)CC3)c(=O)c12 (as salt: maleate)
17 | 215 to 217 | Cc1cccc2c(=O)n(CCCN3CC=C(c4ccc(Cl)cc4)CC3)c(=O)[nH]c12 (as salt: maleate)
